Test results from patent US20250228835A1, “PYRIDINYLOXYPYRIDINES AND RELATED COMPOUNDS AND THEIR USE IN TREATING MEDICAL CONDITIONS” (Rectify Pharmaceuticals, Inc., priority 2024, published 2025).

Columns and labels:
ABCA4 P1380L = target: T1, ABCA4 P1380L (Homo sapiens, UniProt P78363, P1380L); experiment: A4 correction dose-response assay: ABCA4 P1380L HiBit protein expression; assay type: cell-based; details: HEK-293 cells stably expressing HiBit-tagged ABCA4 P1380L; 24 h treatment; top concentration 30 μM; read-out: ABCA4 P1380L EC50, Emax
T1 construct: expressed in transfected cells
T1 sequence (P78363 whole entry P1380L): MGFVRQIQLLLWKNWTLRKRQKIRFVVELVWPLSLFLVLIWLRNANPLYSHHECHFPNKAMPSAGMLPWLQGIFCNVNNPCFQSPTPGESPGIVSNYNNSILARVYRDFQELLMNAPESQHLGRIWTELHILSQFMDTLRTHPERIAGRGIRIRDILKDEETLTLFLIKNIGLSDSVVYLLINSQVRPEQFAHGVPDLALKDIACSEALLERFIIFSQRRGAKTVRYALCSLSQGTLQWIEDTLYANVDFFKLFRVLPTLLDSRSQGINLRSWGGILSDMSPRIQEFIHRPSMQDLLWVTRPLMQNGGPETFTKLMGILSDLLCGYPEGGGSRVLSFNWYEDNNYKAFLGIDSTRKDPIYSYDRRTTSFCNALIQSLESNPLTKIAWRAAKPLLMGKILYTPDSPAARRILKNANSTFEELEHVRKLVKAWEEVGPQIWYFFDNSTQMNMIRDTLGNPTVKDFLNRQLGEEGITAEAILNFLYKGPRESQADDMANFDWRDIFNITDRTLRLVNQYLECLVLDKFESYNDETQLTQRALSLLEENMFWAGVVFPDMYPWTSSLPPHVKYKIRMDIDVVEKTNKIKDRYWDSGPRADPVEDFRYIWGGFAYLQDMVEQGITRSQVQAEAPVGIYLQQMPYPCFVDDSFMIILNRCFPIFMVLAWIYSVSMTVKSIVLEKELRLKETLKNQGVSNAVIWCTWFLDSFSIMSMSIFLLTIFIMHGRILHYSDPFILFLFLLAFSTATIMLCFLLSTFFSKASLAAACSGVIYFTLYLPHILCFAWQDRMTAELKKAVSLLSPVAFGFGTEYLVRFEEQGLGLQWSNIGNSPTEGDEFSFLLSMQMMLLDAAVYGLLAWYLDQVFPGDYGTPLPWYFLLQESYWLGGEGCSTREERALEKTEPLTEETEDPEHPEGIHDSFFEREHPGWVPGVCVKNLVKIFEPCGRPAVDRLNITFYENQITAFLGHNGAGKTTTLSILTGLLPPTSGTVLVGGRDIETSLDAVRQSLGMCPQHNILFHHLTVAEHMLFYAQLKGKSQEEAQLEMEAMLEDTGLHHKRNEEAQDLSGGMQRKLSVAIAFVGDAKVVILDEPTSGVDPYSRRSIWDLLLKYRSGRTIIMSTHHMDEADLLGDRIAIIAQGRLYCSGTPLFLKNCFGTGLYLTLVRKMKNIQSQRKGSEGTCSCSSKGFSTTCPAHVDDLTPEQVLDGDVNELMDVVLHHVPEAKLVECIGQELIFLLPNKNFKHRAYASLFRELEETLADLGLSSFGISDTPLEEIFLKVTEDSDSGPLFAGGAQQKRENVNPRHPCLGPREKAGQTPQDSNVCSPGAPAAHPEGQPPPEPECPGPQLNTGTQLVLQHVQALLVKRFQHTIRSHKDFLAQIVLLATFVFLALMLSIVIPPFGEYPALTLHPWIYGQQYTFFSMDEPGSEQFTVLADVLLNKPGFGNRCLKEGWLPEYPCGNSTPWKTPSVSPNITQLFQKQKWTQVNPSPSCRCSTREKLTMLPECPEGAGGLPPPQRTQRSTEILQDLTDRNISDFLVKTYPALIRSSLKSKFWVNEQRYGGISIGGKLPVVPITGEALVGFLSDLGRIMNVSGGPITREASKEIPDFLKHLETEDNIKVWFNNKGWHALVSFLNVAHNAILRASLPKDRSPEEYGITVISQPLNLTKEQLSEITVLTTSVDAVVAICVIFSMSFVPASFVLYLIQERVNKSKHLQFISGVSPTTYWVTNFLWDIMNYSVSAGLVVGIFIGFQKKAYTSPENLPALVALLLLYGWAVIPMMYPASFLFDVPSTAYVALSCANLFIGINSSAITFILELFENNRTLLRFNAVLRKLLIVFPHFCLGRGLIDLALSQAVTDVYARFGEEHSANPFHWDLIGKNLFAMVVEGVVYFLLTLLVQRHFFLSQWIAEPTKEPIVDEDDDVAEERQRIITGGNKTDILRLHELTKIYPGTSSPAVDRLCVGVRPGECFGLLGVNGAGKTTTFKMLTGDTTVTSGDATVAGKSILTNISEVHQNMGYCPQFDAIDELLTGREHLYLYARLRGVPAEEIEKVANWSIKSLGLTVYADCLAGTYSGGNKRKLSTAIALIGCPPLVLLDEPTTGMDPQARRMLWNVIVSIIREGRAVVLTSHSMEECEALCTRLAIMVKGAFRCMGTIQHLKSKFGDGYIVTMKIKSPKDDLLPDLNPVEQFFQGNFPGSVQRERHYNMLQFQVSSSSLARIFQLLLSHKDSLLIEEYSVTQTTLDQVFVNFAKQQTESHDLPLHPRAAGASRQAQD
Method: Exemplary compounds were evaluated in an A4 correction dose-response assay.
To assess activity against ABCA4 P1380L, the compounds were screened in an assay measuring protein expression, using cells transfected with cDNA encoding HiBit-tagged ABCA4 P1380L. Here we describe an assay for measuring the expression of the P1380L variant of human ABCA4 (henceforth referred to as ABCA4 P1380L) and the use of this assay to measure the efficacy of compounds to increase the expression of ABCA4 P1380L. The assay was designed to characterize the efficacy and potency of compounds to increase the expression of ABCA4 P1380L by calculating an Emax and EC50 value. […] (5% CO2, humidified). […] After the four-hour incubation period, 60 nL of DMSO solutions are transferred to the assay plate.
(§1) Dose response curves include eleven doses with the top final concentration at 30 μM in 0.3% DMSO. Liquid handling is performed with ECHO 550 Acoustic Liquid Handler (Labcyte). After addition of compound treatment, cells are incubated for 24 hours at 37° C. (5% CO2, humidified). After the 24-hour treatment, plates are allowed to equilibrate to room temperature for 10 minutes. Using Dragonfly Automated Liquid Handler (TTP LabTech), 20 μl of HiBit lytic assay reagent (Promega, product #N3040), which is prepared according to manufacturer's instructions, is added to each well. The plates are rotated at room temperature for 2 minutes and incubated for 1 hour at 25° C. before luminescent signal is acquired using an EnVision Multimode Plate Reader (PerkinElmer).

ABCD2 WT = target: T2, ABCD2 WT (Homo sapiens, UniProt Q9UBJ2); experiment: D2 correction dose-response assay: ABCD2 WT HiBit protein expression; assay type: cell-based; details: HEK-293/ABCD2 WT cells, 24 hours treatment, HiBit luminescence; class combines EC50 and Mean MaxAct (fold); read-out: ABCD2 WT EC50, Emax
T2 construct: expressed in transfected cells
T2 sequence (Q9UBJ2 1-740): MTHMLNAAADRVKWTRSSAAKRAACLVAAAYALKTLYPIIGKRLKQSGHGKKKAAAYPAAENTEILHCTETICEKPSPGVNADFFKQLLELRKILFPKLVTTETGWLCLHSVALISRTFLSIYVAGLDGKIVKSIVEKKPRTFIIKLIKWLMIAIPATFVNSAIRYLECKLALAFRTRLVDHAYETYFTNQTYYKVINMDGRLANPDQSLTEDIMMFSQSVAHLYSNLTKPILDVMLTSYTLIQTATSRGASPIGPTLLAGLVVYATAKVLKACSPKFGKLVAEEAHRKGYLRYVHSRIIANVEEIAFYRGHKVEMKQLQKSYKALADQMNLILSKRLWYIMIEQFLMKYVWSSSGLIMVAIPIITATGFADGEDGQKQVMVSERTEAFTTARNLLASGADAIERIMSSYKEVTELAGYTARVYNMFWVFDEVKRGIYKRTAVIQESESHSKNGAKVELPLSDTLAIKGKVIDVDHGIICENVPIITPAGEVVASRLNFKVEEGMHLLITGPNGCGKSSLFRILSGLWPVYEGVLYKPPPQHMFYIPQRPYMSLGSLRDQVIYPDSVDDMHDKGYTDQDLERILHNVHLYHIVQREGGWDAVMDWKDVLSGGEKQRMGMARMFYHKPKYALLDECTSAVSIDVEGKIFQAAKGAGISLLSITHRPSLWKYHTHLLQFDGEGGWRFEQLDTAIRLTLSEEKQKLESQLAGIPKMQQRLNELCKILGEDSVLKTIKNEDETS
Method: Exemplary compounds were evaluated in a D2 correction dose-response assay.
To assess activity against ABCD2, the compounds were screened in an assay measuring protein expression, using cells transfected with cDNA encoding HiBit-tagged ABCD2 wild-type. Here we describe an assay for measuring the expression of the wild type of human ABCD2 (henceforth referred to as ABCD2 WT) and the use of this assay to measure the efficacy of compounds to increase the expression of ABCD2 WT. The assay was designed to characterize the efficacy and potency of compounds to increase the expression of ABCD2 WT by calculating an Emax and EC50 value. HEK-293 cells stably expressing ABCD2 WT (HEK-293/ABCD2 WT) were used for this assay and were maintained at 37° C. (5% CO2, humidified) in Dulbecco's Modified Eagle Medium (DMEM, Gibco product #12100) supplemented with 10% fetal bovine serum (Biosera product #FB-1058/500), 1% PenStrep (HDB product #15140-122), and 0.5 mg/mL puromycin (Gibco product #A11138-03). For the assay, the HEK-293/ABCD2 WT cells were seeded in white/opaque 384-well plates (Corning product #3570) at 10,000 cells/well in 20 μl growth medium and allowed to settle for 4 hours at 37° C. (5% CO2, humidified). Compound serial dilutions are prepared in DMSO as three hundred times (333×) the final concentration and using a dilution factor of 3 using Bravo (Agilent). After the four-hour incubation period, 60 nL of DMSO solutions are transferred to the assay plate.
as §1

| SMILES | EC50 (ABCA4 P1380L) [nM] | EC50 (ABCD2 WT) [nM] |
| --- | --- | --- |
| Cc1nc(C2CC2)nc(C2CC2)c1Oc1nc(-c2cncc(C#N)c2)ccc1NS(C)(=O)=O [Compound I-150] | < 1000 | < 1000 |
| Cc1cc(C)c(Oc2nc(-c3cncc(C#N)c3)ncc2NS(C)(=O)=O)c(C)c1 [Compound I-10] | < 1000 | < 1000 |
| Cc1cc(C)c(Oc2nc(-c3cncc(Cl)c3)ccc2S(=O)(=O)N2CCCC2)c(C)c1 [Compound I-96] | > 25000 | 1000 to 10000 |
| Cc1cc(C)c(Oc2nc(-c3cnc(C#N)c(Cl)c3)ccc2NS(C)(=O)=O)c(C)n1 [Compound I-8] | < 1000 | < 1000 |
| Cc1nc(C(F)(F)F)nc(C2CC2)c1Oc1nc(-c2cncc(C#N)c2)ccc1NS(C)(=O)=O [Compound I-145] | < 1000 | < 1000 |
| Cc1nc(C2COC2)nc(C2CC2)c1Oc1nc(-c2cncc(C#N)c2)ccc1NS(C)(=O)=O [Compound I-143] | < 1000 | < 1000 |
| Cc1cc(C)c(Oc2nc(-c3cncc(Cl)c3)ncc2NS(C)(=O)=O)c(C)c1 [Compound I-9] | > 25000 | < 1000 |
| Cc1cc(C)c(Oc2nc(-c3cncc(C#N)c3)ccc2NS(=O)(=O)c2cccnc2)c(C2CC2)n1 [Compound I-147] | < 1000 | < 1000 |
| Cc1nc(C(F)(F)F)nc(C2CC2)c1Oc1nc(-c2cncc(Cl)c2)ccc1NS(C)(=O)=O [Compound I-151] | < 1000 | < 1000 |
| CS(=O)(=O)Nc1ccc(-c2cncc(C#N)c2)nc1Oc1c(C2CC2)nc(C(F)(F)F)nc1C1CC1 [Compound I-138] | < 1000 | < 1000 |
| Cc1nc(N2CC(C#N)C2)nc(C)c1Oc1nc(-c2cncc(C#N)c2)ccc1NS(C)(=O)=O [Compound I-159] | < 25000 | < 1000 |
| Cc1cc(C)c(Oc2nc(-c3cncc(Cl)c3)ccc2S(=O)(=O)NC(C)(C)C)c(C)c1 [Compound I-99] | > 25000 | > 25000 |
| Cc1cc(C(F)(F)F)nc(C2CC2)c1Oc1nc(-c2cncc(C#N)c2)ccc1NS(=O)(=O)C(C)C [Compound I-141] | < 1000 | < 1000 |
| Cc1cc(C)c(Oc2nc(-c3ccc(C#N)nc3)ccc2NS(C)(=O)=O)c(C)n1 [Compound I-7] | < 1000 | < 1000 |
| Cc1cc(C)c(Oc2nc(-c3cccc(Cl)c3)ccc2S(N)(=O)=O)c(C)c1 [Compound I-102] | < 1000 | > 25000 |
| CCS(=O)(=O)N(C)c1ccc(-c2cncc(C#N)c2)nc1Oc1c(C)cc(C(F)(F)F)nc1C1CC1 [Compound I-148] | < 1000 | < 1000 |
| CNS(=O)(=O)c1ccc(-c2cncc(Cl)c2)nc1Oc1c(C)cc(C)cc1C [Compound I-95] | < 1000 | < 1000 |
| Cc1nc(C(F)(F)F)cc(C2CC2)c1Oc1nc(-c2cncc(C#N)c2)ccc1NS(C)(=O)=O [Compound I-155] | < 1000 | > 25000 |
| Cc1cc(C(F)F)nc(C2CC2)c1Oc1nc(-c2cncc(C#N)c2)ccc1NS(C)(=O)=O [Compound I-137] | < 1000 | < 1000 |
| Cc1cc(C(F)(F)F)nc(C2CC2)c1Oc1nc(-c2cncc(C#N)c2)ccc1S(=O)(=O)NC1CC1 [Compound I-133] | < 1000 | < 1000 |
| Cc1cc(C2CC2)nc(C)c1Oc1nc(-c2cncc(C#N)c2)ccc1NS(C)(=O)=O [Compound I-4] | < 1000 | < 1000 |
| Cc1cc(C(F)(F)F)nc(C2CC2)c1Oc1nc(-c2cncc(Cl)c2)ccc1N(C)S(C)(=O)=O [Compound I-153] | > 25000 | 1000 to 10000 |
| Cc1cc(C)c(Oc2nc(-c3cncc(Cl)c3)ccc2S(C)(=N)=O)c(C)c1 (centres unmarked) [Compound I-103] | 1000 to 10000 | 1000 to 10000 |

The remaining lines, values ahead:

| EC50 (ABCA4 P1380L) [nM] | EC50 (ABCD2 WT) [nM] | SMILES |
| --- | --- | --- |
| 1000 to 10000 | < 1000 | Cc1cc(C(F)(F)F)nc(C2CC2)c1Oc1nc(-c2cncc(C#N)c2)ccc1S(=N)(=O)c1cccnc1 (centres unmarked) [Compound I-304] |
| < 25000 | < 1000 | Cc1nc(Oc2nc(-c3cncc(C#N)c3)ccc2NS(C)(=O)=O)c(C2CC2)s1 [Compound I-300] |
| < 25000 | 1000 to 10000 | Cc1cc(C(F)(F)F)nc(C2CC2)c1Oc1nc(-c2cncc(C#N)c2)ccc1S(=O)(=O)N(C)C [Compound I-291] |
| 1000 to 10000 | 10000 to 25000 | Cc1cc(C)c(Oc2nc(-c3cccc(C#N)c3)ccc2S(=N)(=O)C2CC2)c(C)n1 (centres unmarked) [Compound I-316] |
| > 25000 | > 25000 | Cc1nc(N2CC3(COC3)C2)nc(C)c1Oc1nc(-c2cncc(C#N)c2)ccc1NS(C)(=O)=O [Compound I-160] |
| < 25000 | 10000 to 25000 | Cc1cc(C(F)(F)F)nc(C2CC2)c1Oc1nc(-c2cncc(C#N)c2)ccc1S(=N)(=O)C1CCOCC1 (centres unmarked) [Compound I-301] |
| > 25000 | 1000 to 10000 | Cc1cc(C)c(Oc2nc(-c3c[nH]c(=O)c(C#N)c3)ccc2NS(C)(=O)=O)c(C)n1 [Compound I-307] |
| < 25000 | < 1000 | Cc1cc(C(F)(F)F)nc(C2CC2)c1Oc1nc(-c2cncc(C#N)c2)ccc1S(=O)(=O)Nc1cccnc1 [Compound I-294] |
| < 25000 | < 1000 | Cc1cc(C(F)(F)F)nc(C2CC2)c1Oc1nc(-c2cncc(C#N)c2)ccc1NS(C)(=O)=O [Compound I-163] |
| < 25000 | 1000 to 10000 | CNS(=O)(=O)c1ccc(-c2cncc(C#N)c2)nc1Oc1c(C)cc(C(F)(F)F)nc1C1CC1 [Compound I-293] |
| 1000 to 10000 | 1000 to 10000 | Cc1cc(C)[n+]([O-])c(C)c1Oc1nc(-c2cncc(C#N)c2)ccc1NS(C)(=O)=O [Compound I-311] |
| > 25000 | 1000 to 10000 | Cc1nc(C(F)(F)F)nc(C2CC2)c1Oc1nc(-c2cncc(C#N)c2)ccc1S(=O)(=O)Nc1cccnc1 [Compound I-310] |
| < 1000 | < 1000 | Cc1sc(C2CC2)nc1Oc1nc(-c2cncc(C#N)c2)ccc1NS(C)(=O)=O [Compound I-299] |
| > 25000 | > 25000 | Cc1nc(C(F)F)nc(C2CC2)c1Oc1nc(-c2cncc(C#N)c2)ccc1S(=O)(=O)NC1CC1 [Compound I-314] |
| > 25000 | > 25000 | Cc1nc(C(F)(F)F)nc(C2CC2)c1Oc1nc(-c2cncc(C#N)c2)ccc1S(=N)(=O)C1CC1 (centres unmarked) [Compound I-303] |
| < 1000 | < 1000 | Cc1cc(C(F)(F)F)nc(C2CC2)c1Oc1nc(-c2cncc(C#N)c2)ccc1S(=N)(=O)c1cccnn1 (centres unmarked) [Compound I-296] |
| < 25000 | 1000 to 10000 | Cc1cc(C(F)(F)F)nc(C2CC2)c1Oc1nc(-c2cncc(C#N)c2)ccc1S(=O)(=O)NC1CCOCC1 [Compound I-306] |
